Measured values from paper PMC12443593, “A live bacteria enzyme assay for identification of human disease mutations and drug screening” (Nature Biomedical Engineering, 2025).

Target: T1, human G6PD (glucose-6-phosphate dehydrogenase) (Homo sapiens, UniProt P11413)
T1 construct: functional as dimer or tetramer
Experiment: growth rate of humanized E. coli (LEICA), Hill fit
Type: cell-based
Conditions: live E. coli Δpgi Δzwf expressing human G6PD, M9 glucose, 37 °C, 1% DMSO; growth read-out, no effect on E. coli Δpgi

T1 sequence (P11413 2-515): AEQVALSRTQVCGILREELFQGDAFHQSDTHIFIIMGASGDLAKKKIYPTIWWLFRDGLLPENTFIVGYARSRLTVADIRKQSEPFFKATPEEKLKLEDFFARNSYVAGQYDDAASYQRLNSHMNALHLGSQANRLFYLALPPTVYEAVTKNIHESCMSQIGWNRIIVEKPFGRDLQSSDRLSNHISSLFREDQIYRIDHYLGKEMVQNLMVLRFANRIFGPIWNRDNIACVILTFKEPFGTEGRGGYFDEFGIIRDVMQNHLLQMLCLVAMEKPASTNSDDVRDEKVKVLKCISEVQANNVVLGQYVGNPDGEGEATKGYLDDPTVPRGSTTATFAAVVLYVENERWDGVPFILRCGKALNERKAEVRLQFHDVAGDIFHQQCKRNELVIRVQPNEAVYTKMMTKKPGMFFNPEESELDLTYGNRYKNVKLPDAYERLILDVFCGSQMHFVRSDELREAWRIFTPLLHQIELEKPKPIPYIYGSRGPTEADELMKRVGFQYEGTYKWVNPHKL

IC50: 111 µM
SMILES: N#Cc1cc(Nc2ncc3c(n2)CCCCC3=O)cs1 [G6PDi-1]
